Test results taken from patent publication US7384959B2, “Treatment of convulsive states” (priority 1999, dated 2008).
Marks after values point to notes of the source that are not given here.

Tests used:
[1] = test system: attention-deficit hyperactivity disorder (ADHD); conditions: Patrick et al 1987; cited from earlier work
rat [2] = experiment: barbital interaction (sleep induction) test; format: in vivo; conditions: for NUMBER OF RATS SLEEPING: 10 rats per group; for SLEEP DURATION mean ± s.e.m.: maximum 6 hours after barbital injection
Source text: (§1) The following Tables report the results of the Irwin, PTZ and barbital interaction (sleep induction) tests. Description of these tests may be found in Psychopharmacologica, 13:222-257 (1968), Krall et al, Epilepsia 19:409-428 (1978), and Simon et al, J. Pharmacol, Paris 13:241-252 (1982). See also Roux et al, Phoenix international Pharmacology Reports Nos. D30.2061/2 and D99.021/2.
In Table 3, the following apply: Student's t Test: NS=Not Significant; *=p<0.05; **=p<0.01; ***=<0.001 Fisher's Exact Test: (number of rats sleeping) No indication=Not Significant; +=p<0.05; ++=p<0.01; +++=p<0.001 • (#): maximum=6 hours after barbital injection (taken 50 minutes after barbital injection).

rat [3] = experiment: Pentylenetetrazole (PTZ) Seizure Test; format: in vivo; conditions: for NUMBER OF CLONIC CONVULSIONS number of rats / NUMBER OF DEATHS number of rats / NUMBER OF TONIC CONVULSIONS number of rats: 10 rats per group; for NUMBER OF CLONIC CONVULSIONS number of rats / NUMBER OF DEATHS number of rats / NUMBER OF TONIC CONVULSIONS number of rats / NUMBER OF CLONIC CONVULSIONS % antagonism / NUMBER OF DEATHS % antagonism / NUMBER OF TONIC CONVULSIONS % antagonism: observed during 60 minutes
Source text: as §1
Table 2a reports mean results based on animals showing the symptoms (minimum=3 animals). Table 2b reports results observed during 60 minutes. In these Tables: Student's t Test: NS=Not Significant; *=p<0.05; ** p<0.01; ***=p<0.001 Fisher's Exact Test: No indication=Not Significant; **=p<0.01; ***=p<0.001

patients with epilepsy = conditions: ABPI Compendium 1999-2000; cited from earlier work
[4] = intravenous administration; Srinivas 1993; cited from earlier work

COC(=O)[C@H](c1ccccc1)[C@H]1CCCCN1 [d-MPH, d-threo-Methylphenidate]
pharmacological action in the treatment of ADHD [1]: is the property of the d-enantiomer
SLEEP DURATION % change from control (rat [2]; 0.25 mg/kg s.c. −30 min): −83%
NUMBER OF RATS SLEEPING (rat [2]; 0.25 mg/kg s.c. −30 min): 6
SLEEP DURATION mean ± s.e.m. (rat [2]; 0.25 mg/kg s.c. −30 min): 10.5 ± 5.3** min
SLEEP DURATION % change from control (rat [2]; 0.5 mg/kg s.c. −30 min): −65%
NUMBER OF RATS SLEEPING (rat [2]; 0.5 mg/kg s.c. −30 min): 8
SLEEP DURATION mean ± s.e.m. (rat [2]; 0.5 mg/kg s.c. −30 min): 21.6 ± 13.5* min
SLEEP DURATION % change from control (rat [2]; 1 mg/kg s.c. −30 min): −97%
NUMBER OF RATS SLEEPING (rat [2]; 1 mg/kg s.c. −30 min): 3 ++
SLEEP DURATION mean ± s.e.m. (rat [2]; 1 mg/kg s.c. −30 min): 2.1 ± 1.5*** min
SLEEP DURATION % change from control (rat [2]; 2 mg/kg s.c. −30 min): −100%
NUMBER OF RATS SLEEPING (rat [2]; 2 mg/kg s.c. −30 min): 0 ++
SLEEP DURATION mean ± s.e.m. (rat [2]; 2 mg/kg s.c. −30 min): 0.0 ± 0.0*** min

CN1C(=O)CN=C(c2ccccc2)c2cc(Cl)ccc21 [DIAZEPAM, diazepam, reference compound]
NUMBER OF CLONIC CONVULSIONS number of rats (rat [3]; 4 mg/kg s.c. −30 min): 0+++
NUMBER OF DEATHS number of rats (rat [3]; 4 mg/kg s.c. −30 min): 0+++
NUMBER OF TONIC CONVULSIONS number of rats (rat [3]; 4 mg/kg s.c. −30 min): 0+++
NUMBER OF CLONIC CONVULSIONS % antagonism (rat [3]; 4 mg/kg s.c. −30 min): 100%
NUMBER OF DEATHS % antagonism (rat [3]; 4 mg/kg s.c. −30 min): 100%
NUMBER OF TONIC CONVULSIONS % antagonism (rat [3]; 4 mg/kg s.c. −30 min): 100%

COC(=O)C(c1ccccc1)C1CCCCN1 (racemic) [d,l-MPH, d,l-threo-methylphenidate]
effect on seizure frequency (patients with epilepsy): can cause an increase in seizure frequency in a small number of such patients
SLEEP DURATION % change from control (rat [2]; 0.25 mg/kg s.c. −30 min): +51%
NUMBER OF RATS SLEEPING (rat [2]; 0.25 mg/kg s.c. −30 min): 9
SLEEP DURATION mean ± s.e.m. (rat [2]; 0.25 mg/kg s.c. −30 min): 94.2 ± 18.3 NS min
SLEEP DURATION % change from control (rat [2]; 0.5 mg/kg s.c. −30 min): −19%
NUMBER OF RATS SLEEPING (rat [2]; 0.5 mg/kg s.c. −30 min): 8
SLEEP DURATION mean ± s.e.m. (rat [2]; 0.5 mg/kg s.c. −30 min): 50.2 ± 16.2 NS min
SLEEP DURATION % change from control (rat [2]; 1 mg/kg s.c. −30 min): −100%
NUMBER OF RATS SLEEPING (rat [2]; 1 mg/kg s.c. −30 min): 0 +++
SLEEP DURATION mean ± s.e.m. (rat [2]; 1 mg/kg s.c. −30 min): 0.0 ± 0.0*** min
SLEEP DURATION % change from control (rat [2]; 2 mg/kg s.c. −30 min): −70%
NUMBER OF RATS SLEEPING (rat [2]; 2 mg/kg s.c. −30 min): 4 +
SLEEP DURATION mean ± s.e.m. (rat [2]; 2 mg/kg s.c. −30 min): 19.0 ± 12.6 min
SLEEP DURATION % change from control (rat [2]; 4 mg/kg s.c. −30 min): −100%
NUMBER OF RATS SLEEPING (rat [2]; 4 mg/kg s.c. −30 min): 0 +++
SLEEP DURATION mean ± s.e.m. (rat [2]; 4 mg/kg s.c. −30 min): 0.0 ± 0.0*** min
time after dosing with similar plasma levels of the two enantiomers [4]: around 1.5 hours

CCOC(=O)c1ncn2c1CN(C)C(=O)c1cc(N=[N+]=[N-])ccc1-2 [RO 15-4513, reference compound]
NUMBER OF CLONIC CONVULSIONS number of rats (rat [3]; 2 mg/kg s.c. −30 min): 10
NUMBER OF DEATHS number of rats (rat [3]; 2 mg/kg s.c. −30 min): 10
NUMBER OF TONIC CONVULSIONS number of rats (rat [3]; 2 mg/kg s.c. −30 min): 10
NUMBER OF CLONIC CONVULSIONS % antagonism (rat [3]; 2 mg/kg s.c. −30 min): 0%
NUMBER OF DEATHS % antagonism (rat [3]; 2 mg/kg s.c. −30 min): 0%
NUMBER OF TONIC CONVULSIONS % antagonism (rat [3]; 2 mg/kg s.c. −30 min): 0%
LATENCY TO CLONIC CONVULSIONS % change from control (rat [3]; 2 mg/kg s.c. −30 min, rat): −37%
LATENCY TO CLONIC CONVULSIONS mean ± s.e.m. (rat [3]; 2 mg/kg s.c. −30 min, rat): 345.0 ± 59.4* sec
LATENCY TO DEATHS % change from control (rat [3]; 2 mg/kg s.c. −30 min, rat): −36%
LATENCY TO DEATHS mean ± sem. (rat [3]; 2 mg/kg s.c. −30 min, rat): 837.0 ± 116.7** sec
LATENCY TO TONIC CONVULSIONS % change from control (rat [3]; 2 mg/kg s.c. −30 min, rat): −42%
LATENCY TO TONIC CONVULSIONS mean ± sem. (rat [3]; 2 mg/kg s.c. −30 min, rat): 681.0 ± 102.6** sec

Cn1c(=O)c2c(ncn2C)n(C)c1=O [Caffeine]
SLEEP DURATION % change from control (rat [2]; 16 mg/kg s.c. −30 min): −99%
NUMBER OF RATS SLEEPING (rat [2]; 16 mg/kg s.c. −30 min): 1 +++
SLEEP DURATION mean ± s.e.m. (rat [2]; 16 mg/kg s.c. −30 min): 0.5 ± 0.5*** min
